Data taken from paper PMC3020970, “K70Q Adds High-Level Tenofovir Resistance to “Q151M Complex” HIV Reverse Transcriptase through the Enhanced Discrimination Mechanism” (PLoS ONE, 2011).
Values joined by “and” are separate entries in the source; they are usually repeats but may differ in a detail not shown here. Identical values can stand only once.

Assays:
HIV-1 Q151Mc/K70E = test: Single-cycle drug susceptibility assay (MAGIC-5 cells); type: cell-based
Procedure: (§1) The NL4-3-based molecular clone was constructed by replacing the pol-coding region with the HIV-1 BH10 strain. […] Each molecular clone was transfected into COS-7 cells. Cells were grown for 48 h, and culture supernatants were harvested and stored at −80°C until use.
(§2) Susceptibilities to various RT inhibitors were determined using the MAGIC-5 cells which are HeLa cells stably transfected with a β-galactosidase gene under the control of an HIV long terminal repeat promoter, and with vectors that express the CD4 receptor and the CCR5 co-receptor under the control of the CMV promoter as described previously. Briefly, MAGIC-5 cells were infected with diluted virus stock (100 blue forming units) in the presence of increasing concentrations of RT inhibitors, cultured for 48 h, fixed, and stained with X-Gal (5-bromo-4-chloro-3-indolyl-β-D-galacto-pyranoside). The stained cells were counted under a light microscope.

HIV-1 Q151Mc = test: as above; type: cell-based; settings: Human immunodeficiency virus 1, MAGIC-5
Procedure: as §1, §2

HIV-1 K70R = test: as above; type: cell-based
Procedure: as §1, §2

HIV-1 Q151Mc/K70G = test: as above; type: cell-based; settings: Human immunodeficiency virus 1, MAGIC-5; Q151Mc/K70G
Procedure: as §1, §2

HIV-1 Q151Mc/K70T = test: as above; type: cell-based
Procedure: as §1, §2

HIV-1 K70E = test: as above; type: cell-based
Procedure: as §1, §2

HIV-1 K70T = test: as above; type: cell-based
Procedure: as §1, §2

HIV-1 Q151Mc/K70N = test: as above; type: cell-based
Procedure: as §1, §2

HIV-1 K70N = test: as above; type: cell-based
Procedure: as §1, §2

HIV-1 Q151Mc/K70Q = test: as above; type: cell-based; settings: Human immunodeficiency virus 1, MAGIC-5; Q151Mc/K70Q
Procedure: as §1, §2

HIV-1 K70Q = test: as above; type: cell-based
Procedure: as §1, §2

HIV-1 K70G = test: as above; type: cell-based
Procedure: as §1, §2

HIV-1 Q151Mc/K70R = test: as above; type: cell-based
Procedure: as §1, §2

HIV-1 NL4-3 strain (WT) = test: microbe, parasite or virus in culture; type: cell-based; settings: Human immunodeficiency virus 1, NL43; WT, MAGIC-5 cells, Table S1; read-out: EC50
Procedure: as §2

[1] = system: HIV-1 clinical isolate 2 (Q151Mc + K70Q); test: Single-cycle drug susceptibility assay (MAGIC-5 cells), clinical isolate 2; type: cell-based; settings: Human immunodeficiency virus 1; clinical isolate 2, MAGIC-5 cells
Procedure: (§3) HIV was isolated from fresh plasma immediately after collection of clinical samples from study participants at the outpatient clinic of the AIDS Clinical Center (ACC), International Medical Center of Japan. The Institutional Review Board approved this study (IMCJ-H13-80) and a written consent was obtained from all participants.
as §2

[2] = system: HIV-1 clinical isolate 1 (Q151Mc-containing); test: Single-cycle drug susceptibility assay (MAGIC-5 cells), clinical isolate 1; type: cell-based; settings: Human immunodeficiency virus 1; clinical isolate 1, MAGIC-5 cells
Procedure: as §3, §2

HIV-1 WT = test: Single-cycle drug susceptibility assay (MAGIC-5 cells), recombinant WT clone; type: cell-based; settings: Human immunodeficiency virus 1, Table S2
Procedure: as §1, §2

HIV-1 RT WT = biological target: T1, HIV-1 RT WT (Human immunodeficiency virus type 1 group M subtype B, UniProt P03366); test: Pre-steady state kinetics of binding and incorporation; type: biochemical
T1 construct: made in house; host or cells: Escherichia coli BL21
Procedure: (§4) Determination of active site concentrations in the different preparations of WT and mutant RTs were performed using pre-steady state burst experiments. […] The reactions were quenched at various times (10 ms to 5 s) by adding EDTA to a final concentration of 50 mM. The amounts of product (P18-dAMP) were quantitated and fit to the following burst equation: [drawing 1] (1) where A is the amplitude of the burst phase that represents the RT-DNA complex at the start of the reaction, k obs is the observed burst rate constant for dNTP incorporation, k ss is the steady state rate constant, and t is the reaction time. The rate constant of the linear phase (kcat) can be estimated by dividing the slope of the linear phase by the enzyme concentration. The active site concentration and template/primer binding affinity (KD-DNA) were determined by plotting the amplitude (A) against the concentration of template/primer. The data were fit using non-linear regression to a quadratic equation: [drawing 2] (2) where KD is the dissociation constant for the RT-DNA complex, and [RT] is the concentration of active polymerase molecules. Subsequent biochemical experiments were performed using corrected active site concentrations, [43].
(§5) HIV-1 RT (50 nM active sites) was pre-incubated with 50 nM T31/P18 in one syringe (Syringe A), whereas varying concentrations of dNTP and 10 mM MgCl2 were kept in another syringe (Syringe B). The solutions were rapidly mixed to initiate reactions, which were subsequently quenched at various times (5 ms to 10 s) by adding EDTA to a final concentration of 50 mM. The products from each quenched reaction were resolved, quantitated, and plotted as described above. The data were fit by non-linear regression to the burst equation (Eq 1).
(§6) To obtain the dissociation constant KD-dNTP for dNTP binding to the RT-DNA complex, the observed burst rates (kobs) were fit to the hyperbolic equation (Eq. 3) using nonlinear regression: [drawing 3] (3) where kpol is the optimal rate of dNTP incorporation.
(§7) The kinetics of TFV incorporation by the WT and mutant enzymes were carried out in a manner similar to that employed for natural dNTP substrate except the time of reactions. It was noted that the mutant enzymes required longer time to incorporate TFV compared to the WT HIV-1 RT (detailed in the Results section).

HIV-1 RT Q151Mc = biological target: T2, HIV-1 RT Q151Mc (Human immunodeficiency virus type 1 group M subtype B, UniProt P03366, A661V/F676L/F715Y/Q750M/V674I); test: as above; type: biochemical
T2 construct: made in house; host or cells: Escherichia coli BL21
Procedure: as §4, §5, §6, §7

HIV-1 RT K70Q/Q151Mc = biological target: T3, HIV-1 RT K70Q/Q151Mc (Human immunodeficiency virus type 1 group M subtype B, UniProt P03366, A661V/F676L/F715Y/K669Q/Q750M/V674I); test: as above; type: biochemical; settings: K70Q/Q151Mc RT
T3 construct: made in house; host or cells: Escherichia coli BL21
Procedure: as §4, §5, §6, §7

HIV-1 RT K70Q = biological target: T4, HIV-1 RT K70Q (Human immunodeficiency virus type 1 group M subtype B, UniProt P03366, K669Q); test: as above; type: biochemical; settings: K70Q RT
T4 construct: made in house; host or cells: Escherichia coli BL21
Procedure: The reactions were quenched at various times (10 ms to 5 s) by adding EDTA to a final concentration of 50 mM. The amounts of product (P18-dAMP) were quantitated and fit to the following burst equation: [drawing 1] (1) where A is the amplitude of the burst phase that represents the RT-DNA complex at the start of the reaction, k obs is the observed burst rate constant for dNTP incorporation, k ss is the steady state rate constant, and t is the reaction time. The rate constant of the linear phase (kcat) can be estimated by dividing the slope of the linear phase by the enzyme concentration. The active site concentration and template/primer binding affinity (KD-DNA) were determined by plotting the amplitude (A) against the concentration of template/primer. The data were fit using non-linear regression to a quadratic equation: [drawing 2] (2) where KD is the dissociation constant for the RT-DNA complex, and [RT] is the concentration of active polymerase molecules. Subsequent biochemical experiments were performed using corrected active site concentrations, [43].
as §5, §6

Cc1cn([C@H]2C=C[C@@H](CO)O2)c(=O)[nH]c1=O [d4T, stavudine]
EC50 (HIV-1 Q151Mc/K70E; Human immunodeficiency virus 1, MAGIC-5, Q151Mc/K70E): 32 ± 3.6 µM
Fold increase in EC50 compared to HIV-1 Q151Mc (HIV-1 Q151Mc/K70E; Q151Mc/K70E vs Q151Mc): (1.3) fold
EC50 (HIV-1 Q151Mc): 25 ± 2.3 µM
EC50 (HIV-1 K70R; Human immunodeficiency virus 1, MAGIC-5, K70R): 4.3 ± 0.57 µM
Fold increase in EC50 compared to HIV-1 WT (HIV-1 K70R; K70R vs WT): (1.7) fold
EC50 (HIV-1 Q151Mc/K70G): 115 ± 5.1 µM
EC50 (HIV-1 Q151Mc/K70T; Human immunodeficiency virus 1, MAGIC-5, Q151Mc/K70T): 16 ± 2.7 µM
Fold increase in EC50 compared to HIV-1 Q151Mc (HIV-1 Q151Mc/K70T; Q151Mc/K70T vs Q151Mc): (0.6) fold
EC50 (HIV-1 K70E; Human immunodeficiency virus 1, MAGIC-5, K70E): 16 ± 2.7 µM
Fold increase in EC50 compared to HIV-1 WT (HIV-1 K70E; K70E vs WT): (6.2) fold
EC50 (HIV-1 K70T; Human immunodeficiency virus 1, MAGIC-5, K70T): 2.2 ± 0.17 µM
Fold increase in EC50 compared to HIV-1 WT (HIV-1 K70T; K70T vs WT): (0.8) fold
EC50 (HIV-1 Q151Mc/K70N; Human immunodeficiency virus 1, MAGIC-5, Q151Mc/K70N): 25 ± 4 µM
Fold increase in EC50 compared to HIV-1 Q151Mc (HIV-1 Q151Mc/K70N; Q151Mc/K70N vs Q151Mc): (1) fold
EC50 (HIV-1 K70N; Human immunodeficiency virus 1, MAGIC-5, K70N): 3.4 ± 0.25 µM
Fold increase in EC50 compared to HIV-1 WT (HIV-1 K70N; K70N vs WT): (1.3) fold
EC50 (HIV-1 Q151Mc/K70Q): 110 ± 6.6 µM
EC50 (HIV-1 K70Q; Human immunodeficiency virus 1, MAGIC-5, K70Q): 3 ± 0.21 µM
Fold increase in EC50 compared to HIV-1 WT (HIV-1 K70Q; K70Q vs WT): (1.2) fold
EC50 (HIV-1 K70G; Human immunodeficiency virus 1, MAGIC-5, K70G): 4.3 ± 0.26 µM
Fold increase in EC50 compared to HIV-1 WT (HIV-1 K70G; K70G vs WT): (1.7) fold
EC50 (HIV-1 Q151Mc/K70R; Human immunodeficiency virus 1, MAGIC-5, Q151Mc/K70R): 44 ± 4.5 µM
Fold increase in EC50 compared to HIV-1 Q151Mc (HIV-1 Q151Mc/K70R; Q151Mc/K70R vs Q151Mc): (1.8) fold
EC50 (HIV-1 NL4-3 strain (WT)): 2 ± 0.55 µM
EC50 [1]: > 100 µM
EC50 [2]: 18.3 ± 1.53 µM
EC50 (HIV-1 WT): 2.6 ± 0.23 µM

Nc1ncnc2c1ncn2[C@H]1C[C@H](O)[C@@H](COP(=O)(O)OP(=O)(O)OP(=O)(O)O)O1 [dATP]
k pol/Kd (HIV-1 RT WT): 2.4e+06 M⁻¹ s⁻¹ and 2.4e+06 ± 200000 M⁻¹ s⁻¹
k pol (HIV-1 RT WT; T31/P18, 37°C): 6.3 s⁻¹ and 6.3 ± 0.5 s⁻¹
Kd (HIV-1 RT WT; binding to RT-DNA complex): 2.6 ± 0.1 µM
k pol/Kd (HIV-1 RT Q151Mc): 3.3e+06 M⁻¹ s⁻¹ and 3.3e+06 ± 300000 M⁻¹ s⁻¹
k pol (HIV-1 RT Q151Mc; T31/P18, 37°C): 17.9 s⁻¹ and 17.9 ± 0.4 s⁻¹
Kd (HIV-1 RT Q151Mc; binding to RT-DNA complex): 5.4 ± 0.5 µM
k pol/Kd (HIV-1 RT K70Q/Q151Mc): 2.9e+06 M⁻¹ s⁻¹ and 2.9e+06 ± 300000 M⁻¹ s⁻¹
k pol (HIV-1 RT K70Q/Q151Mc; T31/P18, 37°C): 14.6 s⁻¹ and 14.6 ± 1.6 s⁻¹
Kd (HIV-1 RT K70Q/Q151Mc; binding to RT-DNA complex): 5 ± 0.07 µM
k pol (HIV-1 RT K70Q; T31/P18, 37°C): 8.4 ± 0.4 s⁻¹
Kd (HIV-1 RT K70Q; binding to RT-DNA complex): 3.8 ± 0.6 µM
